According to patent US20160101148A1, “TREATMENT AND PREVENTION OF BACTERIAL SKIN INFECTIONS USING ORITAVANCIN” (priority 2013, published 2016):
≈ marks a conversion by molar mass, not a printed value.

Columns and labels:
[1] = tested on: ABSSSI caused by susceptible gram-positive bacteria, including MRSA; assay: SOLO I and SOLO II combined, efficacy; type: in vivo, human; conditions: SOLO I and SOLO II combined; for FDA primary endpoint: Cessation of spread, absence of fever, no rescue antibiotics / ≧20% reduction of lesion area / FDA primary endpoint: Cessation of spread, absence of fever, no rescue antibiotics, number of patients / ≧20% reduction of lesion area, number of patients: ECE; for EMA primary endpoint: Investigator-assessed clinical cure / EMA primary endpoint: Investigator-assessed clinical cure, number of patients: PTE
Excerpt: (§1) Complete results were obtained from a phase 3 clinical trial program of oritavancin (SOLO), which investigated the drug for the treatment of acute bacterial skin and skin structure infections (ABSSSI) caused by susceptible gram-positive bacteria, including methicillin-resistant Staphylococcus aureus (MRSA). SOLO I and SOLO II clinical trials were identical multicenter, double-blind, randomized clinical trials.
In microbiologically confirmed MRSA patients, efficacy was similar in both treatment groups; however, a higher proportion of MRSA-infected patients in the oritavancin group achieved the endpoint of greater than or equal to 20% reduction of lesion area at ECE (p value=0.032). Under the Special Protocol Assessment (SPA) agreed with the FDA, the protocols pre-specified that MRSA patients from the SOLO studies would be pooled for the evaluation of efficacy.
The combined SOLO studies represented 1,987 patients in an intent-to-treat population for evaluation of oritavancin in the treatment of ABSSSI in controlled clinical trials and assessed one of the largest subsets of patients with documented MRSA infection (405 patients).

[2] = tested on: S. aureus strains (14 mecC MRSA, 2 mecA MRSA, ATCC 29213 MSSA); assay: In vitro time-kill assays at free peak and free trough concentrations; type: cell-based, Staphylococcus aureus
Protocol: Viable cell count was determined by serial dilution plating, including the use of 25 g/L charcoal suspension to limit antibiotic carryover. […] Time-kill assays were repeated at least twice independently; results presented are from a representative experiment.
Doubling dilution concentrations of comparator agents were likewise chosen to approximate their fCmax and fCmin levels in plasma when administered at approved dosages for complicated skin and skin structure infections, using pharmacokinetic data and protein binding values from their respective package inserts (DAP [Cubicin®]; LZD [Zyvox®]; VAN [Vancocin®]; Table 3).

[3] = tested on: S. aureus strains (14 mecC MRSA, 2 mecA MRSA, ATCC 29213 MSSA); assay: Broth microdilution MIC determination; type: cell-based, Staphylococcus aureus; conditions: Staphylococcus aureus
Protocol: The S. aureus (SA) strains used in this study were: ATCC 43300 (mecA methicillin-resistant SA [MRSA]); ATCC 33591 (mecA MRSA), ATCC 29213 (methicillin-susceptible SA; quality control strain) and 14 mecC MRSA obtained from the Staten Serum Institute (Copenhagen, Denmark).
Tests with oritavancin included polysorbate-80 (final test concentration of 0.002%) as described (CLSI 2012a; Arhin et al., 2008). Tests with daptomycin included CaCl2 at a concentration of 50 mg/L. MICs were read after 24 h incubation.

[4] = tested on: ABSSSI caused by susceptible gram-positive bacteria, including MRSA; assay: SOLO II Phase 3 trial, efficacy; type: in vivo, human; conditions: for FDA primary endpoint: Cessation of spread, absence of fever, no rescue antibiotics / ≧20% reduction of lesion area / FDA primary endpoint: Cessation of spread, absence of fever, no rescue antibiotics, number of patients / ≧20% reduction of lesion area, number of patients: ECE; for EMA primary endpoint: Investigator-assessed clinical cure / EMA primary endpoint: Investigator-assessed clinical cure, number of patients: PTE
Excerpt: as §1
In SOLO II, all protocol-specified primary and secondary efficacy endpoints were met. […] The efficacy was similar in the overall population and in those patients with microbiologically confirmed MRSA infections.

[5] = confirmed MRSA, MicroITT, oritavancin n = 204, vancomycin n = 201
[6] = mITT, oritavancin n = 978, vancomycin n = 981
[7] = confirmed MRSA, Microbiological ITT
[8] = confirmed MRSA, Microbiological ITT, oritavancin n = 100, vancomycin n = 101
[9] = mITT, oritavancin n = 503, vancomycin n = 502

For `CN[C@H](CC(C)C)C(=O)N[C@H]1C(=O)N[C@@H](CC(N)=O)C(=O)N[C@H]2C(=O)N[C@H]3C(=O)N[C@H](C(=O)N[C@H](C(=O)O)c4cc(O)cc(O)c4-c4cc3ccc4O)[C@H](O)c3ccc(c(Cl)c3)Oc3cc2cc(c3O[C@@H]2O[C@H](CO)[C@@H](O)[C@H](O)[C@H]2O[C@H]2C[C@](C)(N)[C@H](O)[C@H](C)O2)Oc2ccc(cc2Cl)[C@H]1O` [Vancomycin, vancomycin], the “FDA primary endpoint: Cessation of spread, absence of fever, no rescue antibiotics” value ([1]; confirmed MRSA, MicroITT) was 80.6%, the “≧20% reduction of lesion area” value ([1]; confirmed MRSA, MicroITT) was 87.1% and the “FDA primary endpoint: Cessation of spread, absence of fever, no rescue antibiotics, number of patients” value [1, 5] was 162. For the same molecule, the “≧20% reduction of lesion area, number of patients” value (shortened to “≧20% reduction … of patients”) [1, 5] was 175, the “EMA primary endpoint: Investigator-assessed clinical cure” value ([1]; confirmed MRSA, MicroITT) was 84.1% and the “EMA primary endpoint: Investigator-assessed clinical cure, number of patients” value (from here on “EMA primary endpoint … of patients”) [1, 5] was 169. For the same molecule, the “FDA primary endpoint: Cessation of spread, absence of fever, no rescue antibiotics” value ([1]; mITT) was 80.9%, the “≧20% reduction of lesion area” value ([1]; mITT) was 84.1% and the “FDA primary endpoint: Cessation of spread, absence of fever, no rescue antibiotics, number of patients” value [1, 6] was 794. For the same molecule, the “≧20% reduction … of patients” value [1, 6] was 825, the “EMA primary endpoint: Investigator-assessed clinical cure” value ([1]; mITT) was 80.2% and the “EMA primary endpoint … of patients” value [1, 6] was 787. For the same molecule, the “Time to cidality (≧3 log decrease)” value ([2]; 57147 (mecC), vancomycin ƒCmax 16 mg/L) was 6-24 h, the “Time to cidality (≧3 log decrease)” value ([2]; 57147 (mecC), vancomycin ƒCmin 4 mg/L) was 6-24 h and the “Time to cidality (≧3 log decrease)” value ([2]; 70611 (mecC), vancomycin ƒCmax 16 mg/L) was 6-24 h. For the same molecule, the “Time to cidality (≧3 log decrease)” value ([2]; 70611 (mecC), vancomycin ƒCmin 4 mg/L) was 6-24 h, the “Time to cidality (≧3 log decrease)” value ([2]; 73348 (mecC), vancomycin ƒCmax 16 mg/L) was 6-24 h and the “Time to cidality (≧3 log decrease)” value ([2]; 73348 (mecC), vancomycin ƒCmin 4 mg/L) was 6-24 h. For the same molecule, the “Time to cidality (≧3 log decrease)” value ([2]; 73415 (mecC), vancomycin ƒCmax 16 mg/L) was 6-24 h, the “Time to cidality (≧3 log decrease)” value ([2]; 73415 (mecC), vancomycin ƒCmin 4 mg/L) was 6-24 h and the “Time to cidality (≧3 log decrease)” value ([2]; 73617 (mecC), vancomycin ƒCmax 16 mg/L) was 6-24 h. For the same molecule, the “Time to cidality (≧3 log decrease)” value ([2]; 73617 (mecC), vancomycin ƒCmin 4 mg/L) was 6-24 h, the “Time to cidality (≧3 log decrease)” value ([2]; 73829 (mecC), vancomycin ƒCmax 16 mg/L) was 6-24 h and the “Time to cidality (≧3 log decrease)” value ([2]; 73829 (mecC), vancomycin ƒCmin 4 mg/L) was 6-24 h. For the same molecule, the “Time to cidality (≧3 log decrease)” value ([2]; 75814 (mecC), vancomycin ƒCmax 16 mg/L) was 6-24 h, the “Time to cidality (≧3 log decrease)” value ([2]; 75814 (mecC), vancomycin ƒCmin 4 mg/L) was 6-24 h and the “Time to cidality (≧3 log decrease)” value ([2]; 76918 (mecC), vancomycin ƒCmax 16 mg/L) was 6-24 h. The “Time to cidality (≧3 log decrease)” value ([2]; 76918 (mecC), vancomycin ƒCmin 4 mg/L) was 6-24 h, the “Time to cidality (≧3 log decrease)” value ([2]; 77431 (mecC), vancomycin ƒCmax 16 mg/L) was 6-24 h and the “Time to cidality (≧3 log decrease)” value ([2]; 77431 (mecC), vancomycin ƒCmin 4 mg/L) was 6-24 h. For the same molecule, the “Time to cidality (≧3 log decrease)” value ([2]; 77601 (mecC), vancomycin ƒCmax 16 mg/L) was 6-24 h, the “Time to cidality (≧3 log decrease)” value ([2]; 77601 (mecC), vancomycin ƒCmin 4 mg/L) was 6-24 h and the “Time to cidality (≧3 log decrease)” value ([2]; 77950 (mecC), vancomycin ƒCmax 16 mg/L) was 6-24 h. The “Time to cidality (≧3 log decrease)” value ([2]; 77950 (mecC), vancomycin ƒCmin 4 mg/L) was 6-24 h, the “Time to cidality (≧3 log decrease)” value ([2]; 77964 (mecC), vancomycin ƒCmax 16 mg/L) was 6-24 h and the “Time to cidality (≧3 log decrease)” value ([2]; 77964 (mecC), vancomycin ƒCmin 4 mg/L) was 6-24 h. The “Time to cidality (≧3 log decrease)” value ([2]; 78085 (mecC), vancomycin ƒCmax 16 mg/L) was 6-24 h, the “Time to cidality (≧3 log decrease)” value ([2]; 78085 (mecC), vancomycin ƒCmin 4 mg/L) was 6-24 h and the “Time to cidality (≧3 log decrease)” value ([2]; 78651 (mecC), vancomycin ƒCmax 16 mg/L) was 6-24 h. The “Time to cidality (≧3 log decrease)” value ([2]; 78651 (mecC), vancomycin ƒCmin 4 mg/L) was 6-24 h, the “Time to cidality (≧3 log decrease)” value ([2]; ATCC 29213 (MSSA), vancomycin ƒCmax 16 mg/L) was 6-24 h and the “Time to cidality (≧3 log decrease)” value ([2]; ATCC 29213 (MSSA), vancomycin ƒCmin 4 mg/L) was 6-24 h. For the same molecule, the “Time to cidality (≧3 log decrease)” value ([2]; ATCC 33591 (mecA), vancomycin ƒCmax 16 mg/L) was 6-24 h, the “Time to cidality (≧3 log decrease)” value ([2]; ATCC 33591 (mecA), vancomycin ƒCmin 4 mg/L) was 6-24 h and the “Time to cidality (≧3 log decrease)” value ([2]; ATCC 43300 (mecA), vancomycin ƒCmax 16 mg/L) was 6-24 h. For the same molecule, the “Time to cidality (≧3 log decrease)” value ([2]; ATCC 43300 (mecA), vancomycin ƒCmin 4 mg/L) was 6-24 h, the “Time to achieve 3 log kill” value ([2]; all tested strains, both fCmin and fCmax) was 6 to 24 hours and the MIC90 [3] was 1 µg/mL (≈ 0.69 µM). It also gave an MIC ([3]; 57147 MRSA (mecC)) of 1 µg/mL (≈ 0.69 µM), an MIC ([3]; 70611 MRSA (mecC)) of 1 µg/mL (≈ 0.69 µM) and an MIC ([3]; 73348 MRSA (mecC)) of 1 µg/mL (≈ 0.69 µM). The MIC ([3]; 73415 MRSA (mecC)) was 1 µg/mL (≈ 0.69 µM), the MIC ([3]; 73617 MRSA (mecC)) was 1 µg/mL (≈ 0.69 µM) and the MIC ([3]; 73829 MRSA (mecC)) was 1 µg/mL (≈ 0.69 µM). It also gave an MIC ([3]; 75814 MRSA (mecC)) of 1 µg/mL (≈ 0.69 µM), an MIC ([3]; 76918 MRSA (mecC)) of 1 µg/mL (≈ 0.69 µM) and an MIC ([3]; 77431 MRSA (mecC)) of 1 µg/mL (≈ 0.69 µM). It also gave an MIC ([3]; 77601 MRSA (mecC)) of 1 µg/mL (≈ 0.69 µM), an MIC ([3]; 77950 MRSA (mecC)) of 1 µg/mL (≈ 0.69 µM) and an MIC ([3]; 77964 MRSA (mecC)) of 1 µg/mL (≈ 0.69 µM). The MIC ([3]; 78085 MRSA (mecC)) was 1 µg/mL (≈ 0.69 µM), the MIC ([3]; 78651 MRSA (mecC)) was 1 µg/mL (≈ 0.69 µM) and the MIC ([3]; ATCC 29213 (MSSA)) was 1 µg/mL (≈ 0.69 µM). The MIC ([3]; ATCC 29213 / ATCC 33591 / MRSA / MSSA, ATCC 33591 MRSA (mecA)) was 1 µg/mL (≈ 0.69 µM), the MIC ([3]; ATCC 29213 / ATCC 43300 / MRSA / MSSA, ATCC 43300 MRSA (mecA)) was 1 µg/mL (≈ 0.69 µM) and the MIC ([3]; all strains tested) was 1 µg/mL (≈ 0.69 µM). The “FDA primary endpoint: Cessation of spread, absence of fever, no rescue antibiotics” value [4, 7] was 81.2%, the “≧20% reduction of lesion area” value [4, 7] was 90.1% and the “FDA primary endpoint: Cessation of spread, absence of fever, no rescue antibiotics, number of patients” value [4, 8] was 82. The “≧20% reduction … of patients” value [4, 8] was 91, the “EMA primary endpoint: Investigator-assessed clinical cure” value [4, 7] was 85.1% and the “EMA primary endpoint … of patients” value [4, 8] was 86. The “FDA primary endpoint: Cessation of spread, absence of fever, no rescue antibiotics” value ([4]; mITT) was 82.9%, the “≧20% reduction of lesion area” value ([4]; mITT) was 85.3% and the “FDA primary endpoint: Cessation of spread, absence of fever, no rescue antibiotics, number of patients” value [4, 9] was 416. The “≧20% reduction … of patients” value [4, 9] was 428, the “EMA primary endpoint: Investigator-assessed clinical cure” value ([4]; mITT) was 80.5% and the “EMA primary endpoint … of patients” value [4, 9] was 404.
